Results taken from publication PMC9457600, “Synthesis, Leishmanicidal, Trypanocidal, Antiproliferative Assay and Apoptotic Induction of (2-Phenoxypyridin-3-yl)naphthalene-1(2H)-one Derivatives” (Molecules, 2022).

Assays:
[1] = test system: epimastigotes of Trypanosoma cruzi strain MHOM/VE/92/YBM; assay: MTT viability of T. cruzi epimastigotes; format: cell-based; conditions: for EC50: 72 h, epimastigotes
VERO cells = assay: MTT cytotoxicity on VERO cells; format: cell-based, African green monkey; conditions: Chlorocebus sabaeus, 72 h
Protocol: (§1) Vero cells were derived from the kidney of an African green monkey, cells were maintained in Dulbecco’s Modified Eagle’s Medium (DMEM), supplemented with 10% heat-inactivated FBS and penicillin-streptomycin solution 1% at 37 °C, 5% CO2 atmosphere and > 95% humidity. We evaluated through a colorimetric method the effect of compounds 8–23 on the promastigotes of L. brasiliensis. Briefly, 96-well plates were used, where 2 × 10^6 parasites/mL were seeded. A concentration of 50 μM was used for each compound and an incubation time of 96 h at 29 °C. 3-(4,5-dimethylthiazol-2-yl)-2,5-diphenyl tetrazolium bromide (MTT) 1 μg/mL was added and incubated in darkness for 4 h, acidic isopropanol (4N) was added and the plate was read at 570 nm in a spectrophotometer Synergy HT (Biotek). Miltefosine was used as a reference drug. The EC50 calculation of the selected compound was performed using growth curves. Direct counting was used to monitor the proliferation of parasites, three independent experiments were performed for each concentration of the compounds evaluated. The in vitro evaluations of compounds toxicity by MTT in VERO and BMDM cells follow a methodology described above with some modifications. The selectivity index was calculated with SI = CC50/EC50, where CC50 was the maximum concentration range of compounds 10, 21–23 used to evaluate cytotoxicity in VERO and BMDM cells. The trypanocidal activity of compounds 8–23 was evaluated on the viability of T. cruzi epimastigotes through a colorimetric method adapted with minor modifications. 2 × 10^6 parasites/mL were seeded in a 96-well plate, adding 50 μM of each derivative dissolved in DMSO (final concentration remained below 1%). The plate was incubated for 96 h at 29 °C. Then, 1 μg/mL of 3-(4,5-dimethylthiazol-2-yl)-2,5-diphenyl tetrazolium bromide (MTT) was added and incubated in darkness for 4 h. After this time, acidic isopropanol (4N) was added and the plate was read at 570 nm in a spectrophotometer Synergy HT (Biotek). Benznidazole was used as a reference drug. The in vitro evaluations of compounds toxicity by MTT in VERO and BMDM cells follow a methodology described above with some modifications. Cells were counted in suspension and seeded at 20 × 10^3 cells/well. The test was carried out in triplicate on 96-well microplates in different concentrations: 50 μM, 100 μM, 200 μM and 300 μM, untreated cells and reference drug (benznidazole) controls.

[2] = test system: promastigotes of Leishmania (V.) braziliensis strain MHOM/CO/87/UA301; assay: MTT viability of L. braziliensis promastigotes; format: cell-based
Protocol: Promastigotes of Leishmania (V.) braziliensis strain MHOM/CO/87/UA301 were isolated from footpad lesions in Balb/C mice previously infected. In the process of maintenance and differentiation of the parasites, the LTI medium (tryptose 15 g/L, yeast extract 5 g/L, liver extract 2 g/L, hemin-NaOH 0.02 g/L, glucose 4 g/L, NaCl 9 g/L, KCl 0.4 g/L Na2HPO4, 7.5 g/L at pH 7.4) supplemented with 10% fetal calf serum and maintained at 29 °C was used.
Briefly, 96-well plates were used, where 2 × 10^6 parasites/mL were seeded. A concentration of 50 μM was used for each compound and an incubation time of 96 h at 29 °C. 3-(4,5-dimethylthiazol-2-yl)-2,5-diphenyl tetrazolium bromide (MTT) 1 μg/mL was added and incubated in darkness for 4 h, acidic isopropanol (4N) was added and the plate was read at 570 nm in a spectrophotometer Synergy HT (Biotek). Miltefosine was used as a reference drug. The EC50 calculation of the selected compound was performed using growth curves. Direct counting was used to monitor the proliferation of parasites, three independent experiments were performed for each concentration of the compounds evaluated. The in vitro evaluations of compounds toxicity by MTT in VERO and BMDM cells follow a methodology described above with some modifications [60].

BMDM macrophages = assay: MTT cytotoxicity on BMDM macrophages; format: cell-based; conditions: Mus musculus, 72 h
Excerpt: as §1, with “T. cruzi epimastigotes MHOM/VE/92/YBM venezuelan strain” for “Vero cells”, “used to test” for “derived from”, “anti T. cruzi in vitro studies. The strain was” for “kidney of an African green monkey, cells were”, “a modified LIT medium” for “Dulbecco’s Modified Eagle’s Medium (DMEM), supplemented”, “fetal bovine serum (FBS). Mouse bone marrow was used to obtain BMDM macrophages. Mouse fibroblast-conditioned medium L-929 was used for the differentiation” for “heat-inactivated FBS”, “maintenance of BMDM macrophages.” for “penicillin-streptomycin solution 1% at 37 °C, 5% CO2 atmosphere and > 95% humidity.”

CCRF-CEM = assay: MTS antiproliferative assay CCRF-CEM; format: cell-based; conditions: Homo sapiens, 72 h of incubation
Excerpt: (§2) The cell lines used were acquired from the American Type Culture Collection (ATCC), CCRF-CEM (T lymphoblastic leukemia), K562 ([…]), U2OS (osteosarcoma), HCT116 (colon carcinoma), A549 (lung adenocarcinoma) and HCT116p53−/− (HCT116 cell line mutated in p53) Horizon Discovery Ltd., (Waterbeach, Cambridge, United Kingdom).
(§3) In our laboratory, IMTM, we generated the daunorubicin-resistant subline of CCRF-CEM cells (CEM-DNR bulk) and paclitaxel-resistant subline K562-TAX, as described previously. […] Both ABC transporters are involved in drug resistance. As a control, human fibroblasts MRC-5 and BJ cell lines were used. […] Adherent cells were passaged using PBS containing 0.25% trypsin plus 0.01% EDTA (ethylenediamine tetraacetic acid) every 2–3 days.
(§4) The antiproliferative activity of compounds was determined using a standard 3-(4,5-dimethylthiazol-2yl)-5-(3-carboxymethoxyphenyl)-2-(4-sulfophenyl)-2H-tetrazolium (MTS) reduction assay on a robotic high throughput screening platform (HighResBio, Boston, MA, USA) following treatment of cells for 3–7 days. The IC50 values were calculated from the appropriate dose–response curves with Dotmatics software (San Diego, CA, USA).

CEM-DNR = assay: MTS antiproliferative assay CEM-DNR; format: cell-based; conditions: Homo sapiens, 72 h of incubation, daunorubicin-resistant
Excerpt: as §2, §3, §4

K562 = assay: MTS antiproliferative assay K562; format: cell-based, human; conditions: Homo sapiens, K562, 72 h, 72 h of incubation
Excerpt: as §2, §3, §4

K562-TAX = assay: MTS antiproliferative assay K562-TAX; format: cell-based, human; conditions: Homo sapiens, K562-Tax, 72 h, 72 h of incubation; paclitaxel-resistant
Excerpt: as §2, §3, §4

A549 = assay: MTS antiproliferative assay A549; format: cell-based, human; conditions: Homo sapiens, A549, 72 h, 72 h of incubation
Excerpt: as §2, §3, §4

HCT-116 = assay: MTS antiproliferative assay HCT116; format: cell-based; conditions: Homo sapiens, 72 h of incubation
Excerpt: as §2, §3, §4

HCT116p53−/− = assay: MTS antiproliferative assay HCT116p53-/-; format: cell-based; conditions: Homo sapiens; 72 h of incubation
Excerpt: as §2, §3, §4

U2OS = assay: MTS antiproliferative assay U2OS; format: cell-based; conditions: Homo sapiens, 72 h of incubation
Excerpt: as §2, §3, §4

MRC-5 = assay: MTS assay on non-malignant MRC-5; format: cell-based; conditions: MRC5; noncancerous human cell line
Protocol: as §3, §4

BJ = assay: MTS assay on non-malignant BJ; format: cell-based; conditions: noncancerous human cell line
Protocol: as §3, §4

SMILES	EC50 ([1]; Trypanosoma cruzi) [µM]	IC50 (CCRF-CEM) [µM]	IC50 (K562) [µM]	IC50 (K562-TAX) [µM]	IC50 (A549) [µM]	IC50 (HCT-116) [µM]	IC50 (HCT116p53−/−) [µM]	IC50 (U2OS) [µM]	melting point [°C]	EC50 (VERO cells) [µM]	EC50 ([2]; 72 h, promastigotes) [µM]	EC50 ([2]; promastigotes, 72 h) [µM]	EC50 (BMDM macrophages) [µM]	IC50 (CEM-DNR) [µM]	IC50 (MRC-5) [µM]	IC50 (BJ) [µM]	also measured
O=C(Cn1ccnc1[N+](=O)[O-])NCc1ccccc1 [Bnz, benznidazole, reference compound]	30 ± 0.7									120 ± 2.3							SIV/Tc selectivity index on T. cruzi/VERO ([1]; SI = CC50/EC50): 4
COc1ccc2c(c1)C(=O)/C(=C/c1cccnc1Oc1ccccc1)CC2 [Compound 11, (E)-3,4-Dihydro-7-methoxy-2-[(2-phenoxypyridin-3-yl)methylene]naphthalen-1(2H)-one]	> 60	8.79 ± 0.76	> 50	> 50	> 50	> 50	> 50	> 50	136	< 100	≥ 60	> 60	< 1000	45.1 ± 7.9	> 50	> 50	
O=C1/C(=C/c2cccnc2Oc2ccc(Cl)cc2)CCc2ccccc21 [Compound 20, (E)-2-{[2-(4-Chlorophenoxy)pyridin-3-yl]methylene}-3,4-dihydronaphthalen-1(2H)-one]	< 60	6.07 ± 0.63	23.6 ± 2.55	32.5 ± 2.93	37 ± 3.98	26.2 ± 2.4	25.6 ± 3.77	27.9 ± 4.13	130	> 1000	≥ 60	> 60	> 1000	28.2 ± 4.83	> 50	> 50	EC50 [1]: 57.4 ± 3.6 µM
COc1ccc2c(c1)C(=O)/C(=C/c1cccnc1Oc1ccc(Cl)cc1)CC2 [Compound 23, (E)-2-{[2-(4-Chlorophenoxy)pyridin-3-yl]methylene}-3,4-dihydro-7-methoxynaphthalen-1(2H)-one]	4.91 ± 0.98	15.7 ± 1.54	> 50	16.1 ± 4.44	> 50	> 50	> 50	> 50	160	100 ± 16	5.69 ± 2.65		> 1000	23.9 ± 4.98	> 50	> 50	SIB/Lb selectivity index on L. braziliensis/BMDM ([2]; SI = CC50/EC50): 176; SIV/Lb selectivity index on L. braziliensis/VERO ([2]; SI = CC50/EC50): 18; SIV/Tc selectivity index on T. cruzi/VERO ([1]; SI = CC50/EC50): 20; selectivity index T. cruzi vs BMDM (CC50/EC50) ([1]; SI = CC50/EC50): > 204
CCCCCCCCCCCCCCCCOP(=O)([O-])OCC[N+](C)(C)C [Mil, miltefosine, reference compound]											25 ± 1.4		125 ± 4.7				SIB/Lb selectivity index on L. braziliensis/BMDM ([2]; SI = CC50/EC50): 5

More lines, main results first:

EC50 ([1]; Trypanosoma cruzi) [µM]	IC50 (CCRF-CEM) [µM]	IC50 (K562) [µM]	IC50 (K562-TAX) [µM]	IC50 (A549) [µM]	IC50 (HCT-116) [µM]	IC50 (HCT116p53−/−) [µM]	IC50 (U2OS) [µM]	melting point [°C]	SMILES	EC50 (VERO cells) [µM]	EC50 ([2]; 72 h, promastigotes) [µM]	EC50 ([2]; promastigotes, 72 h) [µM]	EC50 (BMDM macrophages) [µM]	IC50 (CEM-DNR) [µM]	IC50 (MRC-5) [µM]	IC50 (BJ) [µM]	also measured
> 60	4.15 ± 0.74	> 50	20 ± 2.16	> 50	> 50	> 50	> 50		O=C1/C(=C/c2cccnc2Oc2ccccc2)CCc2ccccc21 [Compound 8, (E)-3,4-Dihydro-2-[(2-phenoxypyridin-3-yl)methylene]naphthalen-1(2H)-one]	> 100	≤ 60	57.6 ± 1.62	> 1000	38.2 ± 6.26	> 50	> 50	
> 60	6.15 ± 0.84	19.6 ± 3.67	24.1 ± 6.02	30 ± 5.83	24.8 ± 3.77	20.2 ± 3.1	19.6 ± 3.65		COc1cccc2c1CC/C(=C\c1cccnc1Oc1ccccc1)C2=O [Compound 9, (E)-3,4-Dihydro-5-methoxy-2-[(2-phenoxypyridin-3-yl)methylene]naphthalen-1(2H)-one]	< 100	≥ 60	> 60	> 1000	26.3 ± 7.95	> 50	> 50	
> 60	13.2 ± 1.82	44.6 ± 3.67	30.1 ± 7.28	> 50	> 50	> 50	> 50	134	COc1ccc2c(c1)CC/C(=C\c1cccnc1Oc1ccccc1)C2=O [Compound 10, (E)-3,4-Dihydro-6-methoxy-2-[(2-phenoxypyridin-3-yl)methylene]naphthalen-1(2H)-one]	89 ± 15			< 1000	33.7 ± 6.78	> 50	> 50	SIV/Lb selectivity index on L. braziliensis/VERO ([2]; SI = CC50/EC50): 4
< 60	10.4 ± 2.46	32.7 ± 3.67	23.6 ± 8.79	46.9 ± 4.02	38.1 ± 5.44	31.1 ± 4.45	46.8 ± 4.26		COc1cccc2c1CC/C(=C\c1cccnc1Oc1ccc(Cl)cc1)C2=O [Compound 21, (E)-2-{[2-(4-Chlorophenoxy)pyridin-3-yl]methylene}-3,4-dihydro-5-methoxynaphthalen-1(2H)-one]	103 ± 15	9.24 ± 1		> 1000	35.8 ± 4.25	> 50	> 50	EC50 [1]: 35.5 ± 10 µM
